Here are results for eight molecules from ChEMBL document CHEMBL3991601, “The target landscape of clinical kinase drugs” (Science, 2017).

Structures are written as SMILES. The source made the active and inactive calls.

In experiment [1] the target is T1, Mitogen-activated protein kinase 15 (Homo sapiens, UniProt Q8TD08).
T1 sequence (Q8TD08 whole entry): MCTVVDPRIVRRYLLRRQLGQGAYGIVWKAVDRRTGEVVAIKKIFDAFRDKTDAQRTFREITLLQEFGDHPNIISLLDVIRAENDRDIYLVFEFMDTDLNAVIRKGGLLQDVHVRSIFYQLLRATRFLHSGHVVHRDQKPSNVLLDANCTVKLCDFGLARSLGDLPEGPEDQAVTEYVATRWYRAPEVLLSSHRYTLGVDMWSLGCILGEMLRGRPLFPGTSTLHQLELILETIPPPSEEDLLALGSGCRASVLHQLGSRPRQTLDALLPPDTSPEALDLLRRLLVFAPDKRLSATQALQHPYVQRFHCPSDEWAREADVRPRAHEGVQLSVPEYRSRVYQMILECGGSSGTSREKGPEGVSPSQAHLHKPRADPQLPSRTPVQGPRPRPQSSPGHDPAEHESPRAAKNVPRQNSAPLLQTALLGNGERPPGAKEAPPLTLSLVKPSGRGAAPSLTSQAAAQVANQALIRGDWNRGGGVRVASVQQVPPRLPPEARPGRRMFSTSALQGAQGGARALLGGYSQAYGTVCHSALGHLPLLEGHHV

The next experiment has as its target Wee1-like protein kinase (Homo sapiens, UniProt P30291).
The target in experiment [2] is U5 small nuclear ribonucleoprotein 200 kDa helicase (Homo sapiens, UniProt O75643).
Chain of U5 small nuclear ribonucleoprotein 200 kDa helicase (O75643 whole entry): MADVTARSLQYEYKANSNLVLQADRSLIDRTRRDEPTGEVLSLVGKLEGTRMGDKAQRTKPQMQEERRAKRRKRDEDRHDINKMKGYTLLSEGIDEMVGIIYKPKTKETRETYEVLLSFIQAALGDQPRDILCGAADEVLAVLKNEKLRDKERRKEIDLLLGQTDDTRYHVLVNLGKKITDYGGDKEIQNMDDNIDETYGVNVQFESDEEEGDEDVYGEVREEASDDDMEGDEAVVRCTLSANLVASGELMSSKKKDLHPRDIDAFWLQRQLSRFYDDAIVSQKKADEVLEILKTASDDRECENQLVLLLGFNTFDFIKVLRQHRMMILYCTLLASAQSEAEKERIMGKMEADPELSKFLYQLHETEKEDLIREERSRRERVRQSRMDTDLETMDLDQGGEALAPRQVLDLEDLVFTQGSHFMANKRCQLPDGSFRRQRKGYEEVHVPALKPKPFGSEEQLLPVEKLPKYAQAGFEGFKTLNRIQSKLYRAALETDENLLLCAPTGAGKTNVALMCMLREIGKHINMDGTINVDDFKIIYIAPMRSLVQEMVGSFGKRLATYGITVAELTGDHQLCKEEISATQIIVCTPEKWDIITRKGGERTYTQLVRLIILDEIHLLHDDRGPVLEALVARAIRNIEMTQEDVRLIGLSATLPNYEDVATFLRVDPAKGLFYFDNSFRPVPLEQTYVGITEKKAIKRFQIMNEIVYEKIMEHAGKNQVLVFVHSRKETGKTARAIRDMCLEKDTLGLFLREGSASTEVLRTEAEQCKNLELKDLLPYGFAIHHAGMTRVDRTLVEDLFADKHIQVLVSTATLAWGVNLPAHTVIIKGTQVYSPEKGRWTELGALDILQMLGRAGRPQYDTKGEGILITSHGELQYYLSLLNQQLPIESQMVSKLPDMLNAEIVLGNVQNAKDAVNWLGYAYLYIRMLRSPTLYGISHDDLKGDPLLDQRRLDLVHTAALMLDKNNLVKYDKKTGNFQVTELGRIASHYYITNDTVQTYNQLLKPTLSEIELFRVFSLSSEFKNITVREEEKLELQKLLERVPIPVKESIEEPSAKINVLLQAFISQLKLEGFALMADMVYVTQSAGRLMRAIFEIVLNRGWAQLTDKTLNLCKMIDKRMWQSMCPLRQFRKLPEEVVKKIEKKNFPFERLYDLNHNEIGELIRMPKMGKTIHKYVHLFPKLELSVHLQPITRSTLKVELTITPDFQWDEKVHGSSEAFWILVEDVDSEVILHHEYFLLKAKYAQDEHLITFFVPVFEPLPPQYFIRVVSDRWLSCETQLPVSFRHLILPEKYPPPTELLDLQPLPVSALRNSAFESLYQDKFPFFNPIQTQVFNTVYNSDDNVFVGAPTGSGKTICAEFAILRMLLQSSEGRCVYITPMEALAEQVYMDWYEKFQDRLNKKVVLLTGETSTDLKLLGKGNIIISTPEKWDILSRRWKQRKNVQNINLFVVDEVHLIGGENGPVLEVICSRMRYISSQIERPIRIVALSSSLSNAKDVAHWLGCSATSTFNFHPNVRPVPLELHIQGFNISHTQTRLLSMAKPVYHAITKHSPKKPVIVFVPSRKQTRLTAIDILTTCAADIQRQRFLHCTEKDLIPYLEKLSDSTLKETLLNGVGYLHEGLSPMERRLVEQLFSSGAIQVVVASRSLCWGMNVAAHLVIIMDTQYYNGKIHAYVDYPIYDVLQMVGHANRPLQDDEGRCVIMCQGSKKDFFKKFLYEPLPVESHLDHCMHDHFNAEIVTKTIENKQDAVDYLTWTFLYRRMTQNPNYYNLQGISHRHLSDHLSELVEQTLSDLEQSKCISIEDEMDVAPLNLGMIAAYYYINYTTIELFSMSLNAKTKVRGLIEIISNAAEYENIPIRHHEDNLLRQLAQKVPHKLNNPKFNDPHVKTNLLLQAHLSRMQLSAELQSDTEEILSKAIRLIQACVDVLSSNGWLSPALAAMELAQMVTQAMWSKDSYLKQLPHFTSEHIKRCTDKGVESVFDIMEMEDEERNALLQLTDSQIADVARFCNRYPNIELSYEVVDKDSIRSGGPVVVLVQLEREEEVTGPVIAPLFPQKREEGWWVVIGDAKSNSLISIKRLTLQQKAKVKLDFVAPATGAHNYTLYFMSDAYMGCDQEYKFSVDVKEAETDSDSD
Experiment [3] has as its target T2, Serine/threonine-protein kinase STK11 (Homo sapiens, UniProt Q15831).
T2 sequence (Q15831 whole entry): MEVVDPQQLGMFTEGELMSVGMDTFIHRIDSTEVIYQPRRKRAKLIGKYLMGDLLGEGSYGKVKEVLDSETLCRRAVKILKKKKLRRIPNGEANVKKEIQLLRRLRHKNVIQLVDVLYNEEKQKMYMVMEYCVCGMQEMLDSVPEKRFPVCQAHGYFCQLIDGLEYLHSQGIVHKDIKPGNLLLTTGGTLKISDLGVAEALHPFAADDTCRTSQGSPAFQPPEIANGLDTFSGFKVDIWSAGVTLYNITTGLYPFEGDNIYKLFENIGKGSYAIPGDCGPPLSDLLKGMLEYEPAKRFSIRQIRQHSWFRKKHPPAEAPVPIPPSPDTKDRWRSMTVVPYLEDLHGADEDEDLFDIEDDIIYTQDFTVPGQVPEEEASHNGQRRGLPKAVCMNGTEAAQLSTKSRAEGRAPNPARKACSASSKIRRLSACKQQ

For experiment [4], the target named is Dual specificity testis-specific protein kinase 1 (Homo sapiens, UniProt Q15569).
Chain of Dual specificity testis-specific protein kinase 1 (Q15569 whole entry): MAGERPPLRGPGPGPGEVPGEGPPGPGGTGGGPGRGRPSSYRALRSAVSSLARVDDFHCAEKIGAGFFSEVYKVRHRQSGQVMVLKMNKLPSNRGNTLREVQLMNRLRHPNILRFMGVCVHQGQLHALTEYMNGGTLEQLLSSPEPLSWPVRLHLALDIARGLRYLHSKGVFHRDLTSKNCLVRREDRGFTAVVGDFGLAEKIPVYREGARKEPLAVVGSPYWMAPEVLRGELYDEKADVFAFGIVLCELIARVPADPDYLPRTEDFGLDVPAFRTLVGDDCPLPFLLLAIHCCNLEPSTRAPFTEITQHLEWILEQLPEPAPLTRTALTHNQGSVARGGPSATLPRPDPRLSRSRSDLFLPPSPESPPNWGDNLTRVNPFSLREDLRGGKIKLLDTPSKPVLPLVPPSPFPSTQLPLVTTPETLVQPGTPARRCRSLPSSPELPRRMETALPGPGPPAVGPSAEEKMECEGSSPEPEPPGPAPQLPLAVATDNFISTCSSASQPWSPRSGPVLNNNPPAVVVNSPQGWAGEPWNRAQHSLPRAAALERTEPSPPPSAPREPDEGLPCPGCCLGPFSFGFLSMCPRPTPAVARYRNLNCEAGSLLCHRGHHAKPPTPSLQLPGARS
Another experiment has as its target T3, Ephrin type-B receptor 6 (Homo sapiens, UniProt O15197).
T3 sequence (O15197 whole entry): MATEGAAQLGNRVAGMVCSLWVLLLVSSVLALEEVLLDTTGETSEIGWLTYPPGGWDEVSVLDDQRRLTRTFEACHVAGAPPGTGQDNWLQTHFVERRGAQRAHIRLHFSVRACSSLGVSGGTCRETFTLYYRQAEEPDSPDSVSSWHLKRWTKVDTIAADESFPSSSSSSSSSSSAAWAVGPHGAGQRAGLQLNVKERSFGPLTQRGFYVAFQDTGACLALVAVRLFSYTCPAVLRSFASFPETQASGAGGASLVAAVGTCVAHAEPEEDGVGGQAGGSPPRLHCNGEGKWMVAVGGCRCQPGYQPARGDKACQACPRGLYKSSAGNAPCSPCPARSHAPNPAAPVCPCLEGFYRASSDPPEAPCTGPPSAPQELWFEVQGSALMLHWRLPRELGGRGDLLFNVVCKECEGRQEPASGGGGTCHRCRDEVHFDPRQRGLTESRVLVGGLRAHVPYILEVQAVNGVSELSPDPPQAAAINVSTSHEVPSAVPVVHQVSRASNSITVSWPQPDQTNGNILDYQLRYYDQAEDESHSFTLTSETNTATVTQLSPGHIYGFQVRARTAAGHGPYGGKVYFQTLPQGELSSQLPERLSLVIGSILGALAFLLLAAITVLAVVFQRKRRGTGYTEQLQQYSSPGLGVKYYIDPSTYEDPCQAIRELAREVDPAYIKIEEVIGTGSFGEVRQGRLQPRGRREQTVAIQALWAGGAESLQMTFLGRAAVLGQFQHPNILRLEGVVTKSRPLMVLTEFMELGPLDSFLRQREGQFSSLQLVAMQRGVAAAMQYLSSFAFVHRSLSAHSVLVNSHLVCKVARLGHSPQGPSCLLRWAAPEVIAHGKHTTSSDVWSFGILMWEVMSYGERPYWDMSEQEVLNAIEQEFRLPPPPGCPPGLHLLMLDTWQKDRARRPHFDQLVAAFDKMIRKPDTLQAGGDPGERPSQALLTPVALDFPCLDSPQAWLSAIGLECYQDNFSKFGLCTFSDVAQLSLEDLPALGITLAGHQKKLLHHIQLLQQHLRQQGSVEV

Experiment [5] deals with Ras-related protein Rab-6A (Homo sapiens, UniProt P20340).
Chain of Ras-related protein Rab-6A (P20340 whole entry): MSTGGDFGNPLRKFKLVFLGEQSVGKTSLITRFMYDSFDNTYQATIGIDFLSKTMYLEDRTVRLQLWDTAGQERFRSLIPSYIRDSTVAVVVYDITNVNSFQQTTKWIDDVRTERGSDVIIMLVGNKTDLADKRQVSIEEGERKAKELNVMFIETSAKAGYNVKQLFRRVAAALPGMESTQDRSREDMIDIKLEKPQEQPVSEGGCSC
Experiment [6] deals with Cyclin-dependent kinase 6 (Homo sapiens, UniProt Q00534).
Chain of Cyclin-dependent kinase 6 (Q00534 whole entry): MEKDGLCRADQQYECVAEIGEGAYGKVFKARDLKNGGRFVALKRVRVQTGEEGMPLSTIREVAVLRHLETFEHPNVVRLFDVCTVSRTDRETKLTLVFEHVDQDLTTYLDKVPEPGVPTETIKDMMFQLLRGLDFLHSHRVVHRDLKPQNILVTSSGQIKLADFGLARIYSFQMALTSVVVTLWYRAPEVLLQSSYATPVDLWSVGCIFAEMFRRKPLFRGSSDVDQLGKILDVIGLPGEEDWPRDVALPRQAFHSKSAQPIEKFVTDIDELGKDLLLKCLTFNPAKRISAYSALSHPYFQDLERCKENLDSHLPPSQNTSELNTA

By Kd is commonly meant the constant that tells how readily two partners part at equilibrium.
Also: in the data inactive means no Kd found up to 30 µM.

Chain of Wee1-like protein kinase (P30291 whole entry): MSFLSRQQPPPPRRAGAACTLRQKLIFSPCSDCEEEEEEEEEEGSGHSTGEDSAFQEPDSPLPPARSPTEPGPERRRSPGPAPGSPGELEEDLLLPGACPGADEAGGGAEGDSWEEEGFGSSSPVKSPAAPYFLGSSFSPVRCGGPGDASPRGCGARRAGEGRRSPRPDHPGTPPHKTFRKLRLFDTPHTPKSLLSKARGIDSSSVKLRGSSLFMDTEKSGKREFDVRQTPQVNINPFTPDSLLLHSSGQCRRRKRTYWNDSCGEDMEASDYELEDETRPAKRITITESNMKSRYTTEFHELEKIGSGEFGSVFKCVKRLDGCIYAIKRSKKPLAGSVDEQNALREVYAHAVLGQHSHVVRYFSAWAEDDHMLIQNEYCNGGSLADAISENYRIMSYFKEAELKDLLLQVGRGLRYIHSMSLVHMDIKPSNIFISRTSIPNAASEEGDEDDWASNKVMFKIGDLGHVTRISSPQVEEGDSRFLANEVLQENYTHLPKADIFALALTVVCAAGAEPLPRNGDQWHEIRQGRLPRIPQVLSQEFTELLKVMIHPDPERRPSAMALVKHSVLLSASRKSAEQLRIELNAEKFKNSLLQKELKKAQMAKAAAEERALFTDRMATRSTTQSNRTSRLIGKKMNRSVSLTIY

With `COc1cc2c(Nc3ccc(Cl)c(Cl)c3F)ncnc2cc1OC[C@@H]1C[C@@H]2CN(C)C[C@@H]2C1` [TESEVATINIB], the Kd in experiment [1] was > 30 µM (inactive); on Wee1-like protein kinase it was > 30 µM (inactive); in experiment [2], > 30 µM (inactive); in experiment [3], > 30 µM (inactive); in experiment [4], > 30 µM (inactive); on Ephrin type-B receptor 6, 0.259 µM. Moreover, the Kd in experiment [5] and in experiment [6] was > 30 µM (inactive) in each case.

Regarding `O=C(Cc1ccc(-c2ccc(OCCN3CCOCC3)cc2)cn1)NCc1ccccc1` [TIRBANIBULIN], the Kd (in experiment [1]; at Wee1-like protein kinase; in experiment [2]; in experiment [3]; in experiment [4]; on Ephrin type-B receptor 6) was > 30 µM (inactive) throughout. Also, the Kd in experiment [5] and in experiment [6] was > 30 µM (inactive) each time.

For the molecule `O=C1NC(=O)[C@@H](c2cn3c4c(cccc24)CCC3)[C@@H]1c1c[nH]c2ccccc12` [TIVANTINIB], the Kd (in experiment [1]; at Wee1-like protein kinase; in experiment [2]; in experiment [3]; in experiment [4]; on Ephrin type-B receptor 6) was > 30 µM (inactive) throughout. Further, the Kd in experiment [5] and in experiment [6] was > 30 µM (inactive) in each case.

On to `C[C@@H](NC(=O)c1ncnc(N)c1Cl)c1ncc(C(=O)Nc2cc(C(F)(F)F)c(Cl)cn2)s1` [TOVORAFENIB], for which the Kd is > 30 µM (inactive) in experiment [1]; 0.252 µM (active) at Wee1-like protein kinase; > 30 µM (inactive) in experiment [2]; > 30 µM (inactive) in experiment [3]; > 30 µM (inactive) in experiment [4]; 3.34 µM (active) at Ephrin type-B receptor 6. Also, the Kd in experiment [5] and in experiment [6] was > 30 µM (inactive) each time.

As for `Cc1cc(Nc2ncnc3ccc(NC4=NC(C)(C)CO4)cc23)ccc1Oc1ccn2ncnc2c1` [TUCATINIB], the Kd (in experiment [1]; on Wee1-like protein kinase; in experiment [2]; in experiment [3]; in experiment [4]; at Ephrin type-B receptor 6) was > 30 µM (inactive) throughout. The Kd in experiment [5] and in experiment [6] was > 30 µM (inactive) in each case.

With `CC(C)c1cc(CNc2nc(Nc3cc(C4CC4)[nH]n3)cc(N3CCN(C)CC3)n2)on1` [XL-228], the Kd in experiment [1] is > 30 µM (inactive); on Wee1-like protein kinase, > 30 µM (inactive); in experiment [2] it was > 30 µM (inactive); in experiment [3], 3.08 µM; in experiment [4], > 30 µM (inactive); at Ephrin type-B receptor 6, 0.026 µM (active). Also, the Kd in experiment [5] and in experiment [6] was > 30 µM (inactive) in each case.

For `C[C@@H](N)c1ccc(C(=O)Nc2ccnc3[nH]ccc23)cc1` [Y-39983], the Kd (in experiment [1]; on Wee1-like protein kinase; in experiment [2]; in experiment [3]; in experiment [4]; on Ephrin type-B receptor 6) was > 30 µM (inactive) throughout. For the same molecule, the Kd in experiment [5] and in experiment [6] was > 30 µM (inactive) throughout.

Turning to `CN1C/C=C/CCOc2cccc(c2)-c2ccnc(n2)Nc2cccc(c2)C1` [ZOTIRACICLIB], the Kd in experiment [1] is 1.07 µM (active); at Wee1-like protein kinase, > 30 µM (inactive); in experiment [2], > 30 µM (inactive); in experiment [3], > 30 µM (inactive); in experiment [4] it was > 30 µM (inactive); on Ephrin type-B receptor 6 it was > 30 µM (inactive). For the same molecule, the Kd in experiment [5] was > 30 µM (inactive); in experiment [6], 1.6 µM.
